Results reported in patent US9242987B2, “Heterocyclyl pyrazolopyrimidine analogues as JAK inhibitors” (Cellzome Limited, priority 2009, dated 2016).

Columns and labels:
[1] = target: T1, JAK2 (Homo sapiens, UniProt O60674); assay: Kinobeads assay, JAK2; type: binding; details: mixed Molt4/Ramos cell lysate, dot blot detection
T1 construct: endogenous in cells; host or cells: Mixed Molt4/Ramos lysate (1:2)
In short: (§1)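 Lysate from Molt4 and Ramos cells combined 1:2 at 10 mg/mL total protein met test compound and an aminopyrido-pyrimidine affinity matrix for 3 h in the cold. Captured JAK2 and JAK3, after elution, were measured by specific-antibody dot blot on an infrared system; dose-response curves yielded IC50.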

[2] = target: T2, JAK3 (Homo sapiens, UniProt P52333); assay: Kinobeads assay, JAK3; type: binding; details: mixed Molt4/Ramos cell lysate, dot blot detection
T2 construct: endogenous in cells; host or cells: Mixed Molt4/Ramos lysate (1:2)
T2 sequence (P52333 1-1124): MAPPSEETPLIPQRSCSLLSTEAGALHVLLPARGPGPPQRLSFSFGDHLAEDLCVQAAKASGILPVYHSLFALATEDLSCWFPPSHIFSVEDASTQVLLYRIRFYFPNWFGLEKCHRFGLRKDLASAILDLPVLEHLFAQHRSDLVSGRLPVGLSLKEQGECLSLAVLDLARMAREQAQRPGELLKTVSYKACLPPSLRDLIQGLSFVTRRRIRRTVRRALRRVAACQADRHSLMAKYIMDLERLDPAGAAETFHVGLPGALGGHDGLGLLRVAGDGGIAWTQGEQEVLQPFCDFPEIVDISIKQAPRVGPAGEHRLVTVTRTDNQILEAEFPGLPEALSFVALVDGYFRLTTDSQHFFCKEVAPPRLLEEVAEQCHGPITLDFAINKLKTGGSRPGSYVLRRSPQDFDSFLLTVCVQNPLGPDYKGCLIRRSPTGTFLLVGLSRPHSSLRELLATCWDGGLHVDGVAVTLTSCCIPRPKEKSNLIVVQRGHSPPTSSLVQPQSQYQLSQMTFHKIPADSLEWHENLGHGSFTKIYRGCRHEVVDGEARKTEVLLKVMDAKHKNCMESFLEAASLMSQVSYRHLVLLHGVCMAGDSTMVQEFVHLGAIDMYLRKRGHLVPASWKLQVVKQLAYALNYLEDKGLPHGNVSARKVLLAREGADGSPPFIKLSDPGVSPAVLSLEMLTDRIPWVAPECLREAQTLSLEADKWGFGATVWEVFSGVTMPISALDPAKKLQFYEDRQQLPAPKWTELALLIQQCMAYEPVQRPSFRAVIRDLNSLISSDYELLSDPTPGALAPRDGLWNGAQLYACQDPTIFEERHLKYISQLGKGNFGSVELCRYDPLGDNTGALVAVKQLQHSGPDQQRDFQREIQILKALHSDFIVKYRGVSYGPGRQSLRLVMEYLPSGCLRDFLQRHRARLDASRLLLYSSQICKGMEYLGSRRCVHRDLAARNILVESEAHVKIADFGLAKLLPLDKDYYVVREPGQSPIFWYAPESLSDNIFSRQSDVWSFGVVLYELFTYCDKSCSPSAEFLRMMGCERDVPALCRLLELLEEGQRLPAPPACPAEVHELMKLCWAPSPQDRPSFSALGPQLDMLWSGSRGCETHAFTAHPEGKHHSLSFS
In short: as §1

T1 sequence (O60674 whole entry): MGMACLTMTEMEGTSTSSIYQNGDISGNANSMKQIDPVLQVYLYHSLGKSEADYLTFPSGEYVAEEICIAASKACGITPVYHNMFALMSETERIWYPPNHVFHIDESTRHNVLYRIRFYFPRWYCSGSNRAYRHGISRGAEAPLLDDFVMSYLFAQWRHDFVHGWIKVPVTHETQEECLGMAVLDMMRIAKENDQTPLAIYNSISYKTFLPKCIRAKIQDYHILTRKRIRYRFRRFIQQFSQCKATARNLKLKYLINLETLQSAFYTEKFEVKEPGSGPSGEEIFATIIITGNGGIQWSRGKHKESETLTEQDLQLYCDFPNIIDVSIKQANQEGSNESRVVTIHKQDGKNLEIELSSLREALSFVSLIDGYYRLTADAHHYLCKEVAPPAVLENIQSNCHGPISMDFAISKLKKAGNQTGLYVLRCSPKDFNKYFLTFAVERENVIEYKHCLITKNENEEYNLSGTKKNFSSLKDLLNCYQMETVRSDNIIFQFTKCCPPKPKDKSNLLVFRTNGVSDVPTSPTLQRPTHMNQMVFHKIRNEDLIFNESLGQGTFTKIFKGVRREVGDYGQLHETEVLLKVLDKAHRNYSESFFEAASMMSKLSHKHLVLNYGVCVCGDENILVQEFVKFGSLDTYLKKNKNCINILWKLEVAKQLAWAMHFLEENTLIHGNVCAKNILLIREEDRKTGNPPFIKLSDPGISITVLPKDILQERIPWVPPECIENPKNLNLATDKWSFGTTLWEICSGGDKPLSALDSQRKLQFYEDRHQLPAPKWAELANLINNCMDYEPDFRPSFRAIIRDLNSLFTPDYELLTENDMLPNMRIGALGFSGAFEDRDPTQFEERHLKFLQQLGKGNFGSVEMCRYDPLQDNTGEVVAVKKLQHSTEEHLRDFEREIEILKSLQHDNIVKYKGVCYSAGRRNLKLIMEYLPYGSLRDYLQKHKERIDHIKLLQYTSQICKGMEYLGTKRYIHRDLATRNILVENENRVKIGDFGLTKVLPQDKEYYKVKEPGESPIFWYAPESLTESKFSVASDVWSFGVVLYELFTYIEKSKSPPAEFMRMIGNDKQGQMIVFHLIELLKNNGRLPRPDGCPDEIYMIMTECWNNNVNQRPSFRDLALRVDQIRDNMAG

SMILES	IC50 [1]	IC50 [2]
Cn1cc(Nc2ncc3cnn(Cc4cc(F)ccc4C#N)c3n2)cn1 [Example 52, 4-Fluoro-2-((6-(1-methyl-1H-pyrazol-4-ylamino)-1H-pyrazolo[3,4-d]pyrimidin-1-yl)methyl)benzonitrile]	< 100 nM	< 100 nM
Cn1cc(Nc2ncc3cnn(Cc4cc(F)ccc4C(N)=O)c3n2)cn1 [Example 53, 4-Fluoro-2-((6-(1-methyl-1H-pyrazol-4-ylamino)-1H-pyrazolo[3,4-d]pyrimidin-1-yl)methyl)benzamide]	< 100 nM	< 100 nM
Cn1cc(Nc2ncc3cnn(-c4ccc(NS(C)(=O)=O)cn4)c3n2)cn1 [Example 54, N-(6-(6-(1-Methyl-1H-pyrazol-4-ylamino)-1H-pyrazolo[3,4-d]pyrimidin-1-yl)pyridin-3-yl)methanesulfonamide]	1000 to 10000 nM	100 to 1000 nM
Cc1nc(-n2ncc3cnc(Nc4cnn(C)c4)nc32)ccc1NS(C)(=O)=O [Example 55, N-(2-Methyl-6-(6-(1-methyl-1H-pyrazol-4-ylamino)-1H-pyrazolo[3,4-d]pyrimidin-1-yl)pyridin-3-yl)methanesulfonamide]	1000 to 10000 nM	100 to 1000 nM
Cn1cc(Nc2ncc3cnn(-c4ccc(F)cc4)c3n2)cn1 [Example 56, 1-(4-Fluorophenyl)-N-(1-methyl-1H-pyrazol-4-yl)-1H-pyrazolo[3,4-d]pyrimidin-6-amine]	1000 to 10000 nM	100 to 1000 nM
Cn1cc(Nc2ncc3cnn(-c4ccc(Cl)cc4)c3n2)cn1 [Example 57, 1-(4-Chlorophenyl)-N-(1-methyl-1H-pyrazol-4-yl)-1H-pyrazolo[3,4-d]pyrimidin-6-amine]	≥ 10000 nM	100 to 1000 nM
COc1cc(-n2ncc3cnc(Nc4cnn(C)c4)nc32)ccc1F [Example 58, 1-(4-Fluoro-3-methoxyphenyl)-N-(1-methyl-1H-pyrazol-4-yl)-1H-pyrazolo[3,4-d]pyrimidin-6-amine]	≥ 10000 nM	100 to 1000 nM
Cc1cc(-n2ncc3cnc(Nc4cnn(C)c4)nc32)ccc1F [Example 60, 1-(4-fluoro-3-methylphenyl)-N-(1-methyl-1H-pyrazol-4-yl)-1H-pyrazolo[3,4-d]pyrimidin-6-amine]	1000 to 10000 nM	100 to 1000 nM
Cn1cc(Nc2ncc3cnn(-c4ccc(S(C)(=O)=O)cc4)c3n2)cn1 [Example 61, N-(1-methyl-1H-pyrazol-4-yl)-1-(4-(methylsulfonyl)phenyl)-1H-pyrazolo[3,4-d]pyrimidin-6-amine]	1000 to 10000 nM	100 to 1000 nM
Cn1cc(Nc2ncc3cnn(Cc4cc(F)ccc4Cl)c3n2)cn1 [Example 62, 1-(2-Chloro-5-fluorobenzyl)-N-(1-methyl-1H-pyrazol-4-yl)-1H-pyrazolo[3,4-d]pyrimidin-6-amine]	< 100 nM	< 100 nM
Cn1cc(Nc2ncc3cnn(Cc4c(F)cccc4Cl)c3n2)cn1 [Example 63, 1-(2-Chloro-6-fluorobenzyl)-N-(1-methyl-1H-pyrazol-4-yl)-1H-pyrazolo[3,4-d]pyrimidin-6-amine]	100 to 1000 nM	< 100 nM
Cn1cc(Nc2ncc3cnn(Cc4cc(Cl)ccc4F)c3n2)cn1 [Example 64]	100 to 1000 nM	< 100 nM
Cn1cc(Nc2ncc3cnn(Cc4ccccc4C(F)(F)F)c3n2)cn1 [Example 65, N-(1-Methyl-1H-pyrazol-4-yl)-1-(2-(trifluoromethyl)benzyl)-1H-pyrazolo[3,4-d]pyrimidin-6-amine]	1000 to 10000 nM	< 100 nM
Cn1cc(Nc2ncc3cnn(Cc4cccc(C(F)(F)F)c4)c3n2)cn1 [Example 66, N-(1-Methyl-1H-pyrazol-4-yl)-1-(3-(trifluoromethyl)benzyl)-1H-pyrazolo[3,4-d]pyrimidin-6-amine]	≥ 10000 nM	100 to 1000 nM
Cn1cc(Nc2ncc3cnn(Cc4cccc(F)c4)c3n2)cn1 [Example 67, 1-(3-Fluorobenzyl)-N-(1-methyl-1H-pyrazol-4-yl)-1H-pyrazolo[3,4-d]pyrimidin-6-amine]	100 to 1000 nM	< 100 nM
Cn1cc(Nc2ncc3cnn(Cc4cccc(C#N)c4)c3n2)cn1 [Example 68, 3-((6-((1-Methyl-1H-pyrazol-4-yl)amino)-1H-pyrazolo[3,4-d]pyrimidin-1-yl)methyl)benzonitrile]	1000 to 10000 nM	< 100 nM

SMILES	IC50 [1]	IC50 [2]
COc1cccc(Cn2ncc3cnc(Nc4cnn(C)c4)nc32)c1 [Example 69, 1-(3-Methoxybenzyl)-N-(1-methyl-1H-pyrazol-4-yl)-1H-pyrazolo[3,4-d]pyrimidin-6-amine]	1000 to 10000 nM	< 100 nM
Cn1cc(Nc2ncc3cnn(Cc4cccc(Cl)c4)c3n2)cn1 [Example 70, 1-(3-Chlorobenzyl)-N-(1-methyl-1H-pyrazol-4-yl)-1H-pyrazolo[3,4-d]pyrimidin-6-amine]	100 to 1000 nM	< 100 nM
COc1nn(CC(F)F)cc1Nc1ncc2cnn(-c3ccc(S(N)(=O)=O)cc3)c2n1 [Example 71, 4-(6-((1-(2,2-Difluoroethyl)-3-methoxy-1H-pyrazol-4-yl)amino)-1H-pyrazolo[3,4-d]pyrimidin-1-yl)benzenesulfonamide]	≥ 10000 nM	100 to 1000 nM
Cn1cc(Nc2ncc3cnn(Cc4cccc(Cl)c4F)c3n2)cn1 [Example 72, 1-(3-Chloro-2-fluorobenzyl)-N-(1-methyl-1H-pyrazol-4-yl)-1H-pyrazolo[3,4-d]pyrimidin-6-amine]	1000 to 10000 nM	< 100 nM
OCCn1cc(Nc2ncc3cnn(Cc4c(F)cccc4F)c3n2)cn1 [Example 73, 2-(4-((1-(2,6-Difluorobenzyl)-1H-pyrazolo[3,4-d]pyrimidin-6-yl)amino)-1H-pyrazol-1-yl)ethanol]	100 to 1000 nM	< 100 nM
Cn1cc(Nc2ncc3cnn(-c4ccccc4)c3n2)cn1 [Example 74, N-(1-Methyl-1H-pyrazol-4-yl)-1-phenyl-1H-pyrazolo[3,4-d]pyrimidin-6-amine]	1000 to 10000 nM	100 to 1000 nM
Cn1cc(Nc2ncc3cnn(Cc4ccccc4NS(C)(=O)=O)c3n2)cn1 [Example 75, N-(2-((6-((1-Methyl-1H-pyrazol-4-yl)amino)-1H-pyrazolo[3,4-d]pyrimidin-1-yl)methyl)phenyl)methanesulfonamide]	100 to 1000 nM	< 100 nM
Cn1cc(Nc2ncc3cnn(Cc4ccccc4)c3n2)cn1 [Example 76, 1-Benzyl-N-(1-methyl-1H-pyrazol-4-yl)-1H-pyrazolo[3,4-d]pyrimidin-6-amine]	1000 to 10000 nM	< 100 nM
Cn1cc(Nc2ncc3cnn(CCc4ccccc4F)c3n2)cn1 [Example 77, 1-(2-Fluorophenethyl)-N-(1-methyl-1H-pyrazol-4-yl)-1H-pyrazolo[3,4-d]pyrimidin-6-amine]	≥ 10000 nM	100 to 1000 nM
Cn1cc(Nc2ncc3cnn(Cc4ccc(F)c(F)c4)c3n2)cn1 [Example 78, 1-(3,4-Difluorobenzyl)-N-(1-methyl-1H-pyrazol-4-yl)-1H-pyrazolo[3,4-d]pyrimidin-6-amine]	1000 to 10000 nM	100 to 1000 nM
Cn1cc(Nc2ncc3cnn(Cc4cc(F)cc(F)c4)c3n2)cn1 [Example 79, 1-(3,5-Difluorobenzyl)-N-(1-methyl-1H-pyrazol-4-yl)-1H-pyrazolo[3,4-d]pyrimidin-6-amine]	100 to 1000 nM	< 100 nM
Cn1cc(Nc2ncc3cnn(Cc4cccc(C(N)=O)c4)c3n2)cn1 [Example 80, 3-((6-((1-Methyl-1H-pyrazol-4-yl)amino)-1H-pyrazolo[3,4-d]pyrimidin-1-yl)methyl)benzamide]	1000 to 10000 nM	< 100 nM
Cn1cc(Nc2ncc3cnn(CCc4cccc(F)c4)c3n2)cn1 [Example 81, 1-(3-Fluorophenethyl)-N-(1-methyl-1H-pyrazol-4-yl)-1H-pyrazolo[3,4-d]pyrimidin-6-amine]	1000 to 10000 nM	100 to 1000 nM
Cn1cc(Nc2ncc3cnn(CCc4ccc(F)cc4)c3n2)cn1 [Example 82, 1-(4-Fluorophenethyl)-N-(1-methyl-1H-pyrazol-4-yl)-1H-pyrazolo[3,4-d]pyrimidin-6-amine]	1000 to 10000 nM	100 to 1000 nM
Cc1cccc(Cn2ncc3cnc(Nc4cnn(C)c4)nc32)c1 [Example 83, N-(1-Methyl-1H-pyrazol-4-yl)-1-(3-methylbenzyl)-1H-pyrazolo[3,4-d]pyrimidin-6-amine]	1000 to 10000 nM	< 100 nM
